From ChEMBL document CHEMBL3885861, “Open TG-GATES”

Species: Rattus norvegicus
Assay: Open TG-GATES - Regimen: Daily Repeat
Format: toxicity, organism-based, Sprague-Dawley
Design: regimen Daily Repeat, gender Male, age 6 weeks
Settings: in vivo, po, route gavage; for APTT / Bas / Eos / Fbg / Hb / Ht / Lym / MCH / MCHC / MCV / Mono / Neu / PT / Plat / RBC / Ret / WBC: tissue Blood; for KIDNEY_L / KIDNEY_R / KIDNEY_TOTAL: tissue Kidney; for LIVER: tissue Liver; for A/G / ALP / ALT / AST / BUN / CRE / Ca / Cl / DBIL / GLC / IP / K / LDH / Na / PL / RALB / TBIL / TC / TG / TP / gamma-GTP: tissue Plasma
[1] = 0 mg/kg, 72 h, dose level Control, time 3 day
[2] = 0 mg/kg, […], dose level Control, time 7 day
[3] = 0 mg/kg, […], dose level Control, time 14 day
[4] = 0 mg/kg, […], dose level Control, time 28 day
[5] = 5 mg/kg, 72 h, dose level Low, time 3 day
[6] = 5 mg/kg, […], dose level Low, time 7 day
[7] = 5 mg/kg, […], dose level Low, time 14 day
[8] = 5 mg/kg, […], dose level Low, time 28 day

## CC(=N)S [THIOACETAMIDE]
[1]
  TERMINAL_BW: 229.8 g
  APTT: 17 s
  Bas: 0%
  Eos: 1%
  Fbg: 232.2 mg/dL
  Hb: 13.8 g/dL
  Ht: 42.6%
  Lym: 74.8%
  MCH: 21.2 pg
  MCHC: 32.5%
  MCV: 65.3 fL
  Mono: 8%
  Neu: 16.4%
  PT: 11.5 s
  Plat: 111.4 x10_4/uL
  RBC: 652.8 x10_4/ul
  Ret: 7%
  WBC: 125.1 x10_2/uL
  KIDNEY_L: 1 g
  KIDNEY_R: 1 g
  KIDNEY_TOTAL: 2 g
  LIVER: 10.7 g
  A/G: 2.1
  ALP: 1014.4 IU/L
  ALT: 31 IU/L
  AST: 62.2 IU/L
  BUN: 17 mg/dL
  CRE: 0.6 mg/dL
  Ca: 10.4 mg/dL
  Cl: 104.2 meq/L
  DBIL: 0.018 mg/dL
  GLC: 196.6 mg/dL
  IP: 7.6 mg/dL
  K: 4.9 meq/L
  LDH: 88 IU/L
  Na: 137.6 meq/L
  PL: 157.4 mg/dL
  RALB: 4 g/dL
  TBIL: 0.4 mg/dL
  TC: 80.4 mg/dL
  TG: 106.6 mg/dL
  TP: 5.8 g/dL
  gamma-GTP: 1 IU/L
[2]
  TERMINAL_BW: 254.8 g
  APTT: 17.3 s
  Bas: 0%
  Eos: 1%
  Fbg: 226.2 mg/dL
  Hb: 13.8 g/dL
  Ht: 41.8%
  Lym: 83.6%
  MCH: 20.8 pg
  MCHC: 33%
  MCV: 63.1 fL
  Mono: 4.4%
  Neu: 10.8%
  PT: 11.8 s
  Plat: 111.5 x10_4/uL
  RBC: 661.6 x10_4/ul
  Ret: 5.3%
  WBC: 145.6 x10_2/uL
  KIDNEY_L: 1.1 g
  KIDNEY_R: 1.1 g
  KIDNEY_TOTAL: 2.1 g
  LIVER: 11.8 g
  A/G: 1.8
  ALP: 868.8 IU/L
  ALT: 27.4 IU/L
  AST: 56.8 IU/L
  BUN: 19.4 mg/dL
  CRE: 0.6 mg/dL
  Ca: 10.3 mg/dL
  Cl: 104.4 meq/L
  DBIL: 0.016 mg/dL
  GLC: 190.2 mg/dL
  IP: 7.1 mg/dL
  K: 5.2 meq/L
  LDH: 79 IU/L
  Na: 136.2 meq/L
  PL: 154.6 mg/dL
  RALB: 3.9 g/dL
  TBIL: 0.3 mg/dL
  TC: 75 mg/dL
  TG: 145.8 mg/dL
  TP: 6.1 g/dL
  gamma-GTP: 1 IU/L
[3]
  TERMINAL_BW: 312.2 g
  APTT: 17.4 s
  Bas: 0%
  Eos: 0.8%
  Fbg: 223.8 mg/dL
  Hb: 14.6 g/dL
  Ht: 44.1%
  Lym: 81%
  MCH: 20.2 pg
  MCHC: 33.1%
  MCV: 61.1 fL
  Mono: 5.8%
  Neu: 12.6%
  PT: 11.8 s
  Plat: 101.4 x10_4/uL
  RBC: 722.8 x10_4/ul
  Ret: 4.5%
  WBC: 145.6 x10_2/uL
  KIDNEY_L: 1.2 g
  KIDNEY_R: 1.2 g
  KIDNEY_TOTAL: 2.3 g
  LIVER: 13.8 g
  A/G: 2
  ALP: 716 IU/L
  ALT: 32.2 IU/L
  AST: 64.8 IU/L
  BUN: 18.6 mg/dL
  CRE: 0.6 mg/dL
  Ca: 10.1 mg/dL
  Cl: 103 meq/L
  DBIL: 0.002 mg/dL
  GLC: 181.6 mg/dL
  IP: 7.1 mg/dL
  K: 4.7 meq/L
  LDH: 76 IU/L
  Na: 134.8 meq/L
  PL: 169 mg/dL
  RALB: 4.1 g/dL
  TBIL: 0.3 mg/dL
  TC: 81.6 mg/dL
  TG: 158.6 mg/dL
  TP: 6.1 g/dL
  gamma-GTP: 1.4 IU/L
[4]
  TERMINAL_BW: 377.5 g
  APTT: 17.5 s
  Bas: 0%
  Eos: 1%
  Fbg: 248.6 mg/dL
  Hb: 15.9 g/dL
  Ht: 46.8%
  Lym: 86.2%
  MCH: 19.7 pg
  MCHC: 33.9%
  MCV: 58 fL
  Mono: 4%
  Neu: 9.2%
  PT: 10.8 s
  Plat: 104.1 x10_4/uL
  RBC: 807.6 x10_4/ul
  Ret: 2.8%
  WBC: 194 x10_2/uL
  KIDNEY_L: 1.4 g
  KIDNEY_R: 1.4 g
  KIDNEY_TOTAL: 2.7 g
  LIVER: 15.2 g
  A/G: 1.9
  ALP: 629 IU/L
  ALT: 29.4 IU/L
  AST: 63 IU/L
  BUN: 18.8 mg/dL
  CRE: 0.6 mg/dL
  Ca: 10.1 mg/dL
  Cl: 103 meq/L
  DBIL: 0 mg/dL
  GLC: 179.4 mg/dL
  IP: 6.8 mg/dL
  K: 4.5 meq/L
  LDH: 96.4 IU/L
  Na: 135.4 meq/L
  PL: 172.8 mg/dL
  RALB: 4.1 g/dL
  TBIL: 0.2 mg/dL
  TC: 83 mg/dL
  TG: 174.6 mg/dL
  TP: 6.3 g/dL
  gamma-GTP: 1.2 IU/L
[5]
  TERMINAL_BW: 228.6 g
  APTT: 16.9 s
  Bas: 0%
  Eos: 1%
  Fbg: 234 mg/dL
  Hb: 13.6 g/dL
  Ht: 41.4%
  Lym: 78.8%
  MCH: 21 pg
  MCHC: 32.9%
  MCV: 63.8 fL
  Mono: 8.2%
  Neu: 12.2%
  PT: 11.6 s
  Plat: 111 x10_4/uL
  RBC: 649.4 x10_4/ul
  Ret: 6.6%
  WBC: 139.8 x10_2/uL
  KIDNEY_L: 1 g
  KIDNEY_R: 1.1 g
  KIDNEY_TOTAL: 2.1 g
  LIVER: 11.7 g
  A/G: 2.1
  ALP: 900 IU/L
  ALT: 28 IU/L
  AST: 58.8 IU/L
  BUN: 16.2 mg/dL
  CRE: 0.5 mg/dL
  Ca: 10.7 mg/dL
  Cl: 104.8 meq/L
  DBIL: 0.004 mg/dL
  GLC: 192.6 mg/dL
  IP: 7.8 mg/dL
  K: 4.7 meq/L
  LDH: 95.2 IU/L
  Na: 137 meq/L
  PL: 159.8 mg/dL
  RALB: 4 g/dL
  TBIL: 0.3 mg/dL
  TC: 83.2 mg/dL
  TG: 123.2 mg/dL
  TP: 5.9 g/dL
  gamma-GTP: 2 IU/L
[6]
  TERMINAL_BW: 252.6 g
  APTT: 16.4 s
  Bas: 0%
  Eos: 1%
  Fbg: 229.2 mg/dL
  Hb: 13.8 g/dL
  Ht: 41.5%
  Lym: 82%
  MCH: 20.9 pg
  MCHC: 33.3%
  MCV: 62.9 fL
  Mono: 6.6%
  Neu: 10.2%
  PT: 12.1 s
  Plat: 111.2 x10_4/uL
  RBC: 660.4 x10_4/ul
  Ret: 5.3%
  WBC: 155.6 x10_2/uL
  KIDNEY_L: 1 g
  KIDNEY_R: 1.1 g
  KIDNEY_TOTAL: 2.1 g
  LIVER: 12.3 g
  A/G: 1.9
  ALP: 742.6 IU/L
  ALT: 31.8 IU/L
  AST: 56 IU/L
  BUN: 18 mg/dL
  CRE: 0.5 mg/dL
  Ca: 10.5 mg/dL
  Cl: 105 meq/L
  DBIL: 0.008 mg/dL
  GLC: 186.6 mg/dL
  IP: 7.6 mg/dL
  K: 5.1 meq/L
  LDH: 84.8 IU/L
  Na: 135.2 meq/L
  PL: 160 mg/dL
  RALB: 3.9 g/dL
  TBIL: 0.3 mg/dL
  TC: 76.4 mg/dL
  TG: 167.4 mg/dL
  TP: 6 g/dL
  gamma-GTP: 1.4 IU/L
[7]
  TERMINAL_BW: 308.5 g
  APTT: 17.1 s
  Bas: 0%
  Eos: 0.8%
  Fbg: 231.8 mg/dL
  Hb: 14.6 g/dL
  Ht: 44.1%
  Lym: 83.6%
  MCH: 19.8 pg
  MCHC: 33.1%
  MCV: 59.9 fL
  Mono: 6%
  Neu: 10%
  PT: 12.3 s
  Plat: 102 x10_4/uL
  RBC: 736.2 x10_4/ul
  Ret: 3.9%
  WBC: 165.2 x10_2/uL
  KIDNEY_L: 1.2 g
  KIDNEY_R: 1.2 g
  KIDNEY_TOTAL: 2.4 g
  LIVER: 13.6 g
  A/G: 2
  ALP: 870.6 IU/L
  ALT: 29.8 IU/L
  AST: 62 IU/L
  BUN: 18.2 mg/dL
  CRE: 0.6 mg/dL
  Ca: 10.2 mg/dL
  Cl: 104.6 meq/L
  DBIL: 0.006 mg/dL
  GLC: 185.4 mg/dL
  IP: 6.8 mg/dL
  K: 5 meq/L
  LDH: 78.6 IU/L
  Na: 134.2 meq/L
  PL: 135.8 mg/dL
  RALB: 4.1 g/dL
  TBIL: 0.4 mg/dL
  TC: 61.6 mg/dL
  TG: 156.8 mg/dL
  TP: 6.2 g/dL
  gamma-GTP: 2 IU/L
[8]
  TERMINAL_BW: 375.1 g
  APTT: 17 s
  Bas: 0%
  Eos: 0.8%
  Fbg: 242.4 mg/dL
  Hb: 15 g/dL
  Ht: 44.9%
  Lym: 85.2%
  MCH: 19.6 pg
  MCHC: 33.5%
  MCV: 58.5 fL
  Mono: 3.6%
  Neu: 10.4%
  PT: 11.1 s
  Plat: 111.7 x10_4/uL
  RBC: 767.8 x10_4/ul
  Ret: 3%
  WBC: 184.6 x10_2/uL
  KIDNEY_L: 1.3 g
  KIDNEY_R: 1.4 g
  KIDNEY_TOTAL: 2.7 g
  LIVER: 16.5 g
  A/G: 1.6
  ALP: 613.4 IU/L
  ALT: 25.8 IU/L
  AST: 54.6 IU/L
  BUN: 21.6 mg/dL
  CRE: 0.6 mg/dL
  Ca: 10.2 mg/dL
  Cl: 103 meq/L
  DBIL: 0 mg/dL
  GLC: 164 mg/dL
  IP: 6.9 mg/dL
  K: 4.6 meq/L
  LDH: 90.2 IU/L
  Na: 135.2 meq/L
  PL: 135.6 mg/dL
  RALB: 3.9 g/dL
  TBIL: 0.3 mg/dL
  TC: 60.8 mg/dL
  TG: 131.8 mg/dL
  TP: 6.4 g/dL
  gamma-GTP: 1.6 IU/L
